According to ChEMBL document CHEMBL3886572, “Cyclic amides” (2016):

Target: Procathepsin L (Homo sapiens, UniProt P07711)
Assay: Assay buffer: 100 mM potassium phosphate pH 6.5, EDTA-Na 5 mM, Triton X-100 0.001%, DDT 5 mM. […] AMC=7-Amino-4-Methyl-Coumarin. […] Excitation 360 nm, Emission 465 nm. Enzyme is added to the substance dilutions in 96-well microtitre plates and the reaction is started with substrate.

Sequence of Procathepsin L (P07711 whole entry): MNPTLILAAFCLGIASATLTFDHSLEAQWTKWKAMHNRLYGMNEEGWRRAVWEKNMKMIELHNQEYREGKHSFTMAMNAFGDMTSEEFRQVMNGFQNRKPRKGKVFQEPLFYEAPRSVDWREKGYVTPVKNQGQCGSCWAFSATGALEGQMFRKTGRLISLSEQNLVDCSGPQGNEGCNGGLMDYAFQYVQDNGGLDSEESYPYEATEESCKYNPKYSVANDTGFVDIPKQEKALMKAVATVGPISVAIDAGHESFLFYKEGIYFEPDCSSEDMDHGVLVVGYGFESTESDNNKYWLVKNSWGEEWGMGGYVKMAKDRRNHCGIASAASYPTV

N#Cc1ccc2c(c1)C(=O)N[C@H](C(=O)NC1(C#N)CC1)Cc1ccc(c(Cl)c1)OC/C=C/CO2
IC50: 6.9 nM
